Source: the NIST ThermoML archive (doi:10.1016/j.jct.2010.07.016)

Tests used:
[1] = xn = mol fraction of the nth substance listed; conditions: 308.15 K, 101 kPa, Liquid; for excess molar volume: Direct dilatometry; for speed of sound: Linear variable-path acoustic interferometer
[2] = excess molar enthalpy (molar enthalpy of mixing); xn = mol fraction of the nth substance listed; conditions: 308.15 K, 101 kPa, Liquid, Drop calorimeter

Cc1ccccc1C [1,2-dimethylbenzene] + C1CCOCC1
Conditions	excess molar enthalpy [kcal/mol]	excess molar volume [m3/mol]	speed of sound [m/s]
[1], x2 = 0.0536	–	-1.2e-08	–
[1], x2 = 0.0643	–	-1.4e-08	–
[1], x2 = 0.0805	–	-1.7e-08	–
[1], x2 = 0.0854	–	–	1319
[1], x2 = 0.1127	–	-2.3e-08	–
[1], x2 = 0.1494	–	–	1315
[1], x2 = 0.1816	–	-3.4e-08	–
[1], x2 = 0.2134	–	–	1309
[1], x2 = 0.2834	–	–	1303
[1], x2 = 0.2975	–	-4.7e-08	–
[1], x2 = 0.3778	–	–	1293
[1], x2 = 0.3954	–	-5.3e-08	–
[1], x2 = 0.4756	–	–	1281
[1], x2 = 0.4935	–	-5.5e-08	–
[1], x2 = 0.5132	–	–	1277
[1], x2 = 0.52	–	-5.4e-08	–
[1], x2 = 0.5642	–	-5.3e-08	–
[1], x2 = 0.5668	–	–	1270
[1], x2 = 0.6124	–	–	1265
[1], x2 = 0.6421	–	-4.8e-08	–
[1], x2 = 0.7035	–	–	1254
[1], x2 = 0.7314	–	-4e-08	–
[1], x2 = 0.7866	–	–	1245
[1], x2 = 0.8645	–	–	1237
[1], x2 = 0.8832	–	-1.9e-08	–
[1], x2 = 0.9228	–	-1.3e-08	–
[1], x2 = 0.9344	–	–	1230
[1], x2 = 0.9545	–	–	1228
[2], x2 = 0.0587	-0.00636	–	–
[2], x2 = 0.0691	-0.00729	–	–
[2], x2 = 0.0838	-0.00851	–	–
[2], x2 = 0.1451	-0.0123	–	–
[2], x2 = 0.1809	-0.0137	–	–
[2], x2 = 0.2454	-0.0147	–	–
[2], x2 = 0.3023	-0.0141	–	–
[2], x2 = 0.3872	-0.0111	–	–
[2], x2 = 0.4425	-0.00817	–	–
[2], x2 = 0.5752	0.000574	–	–
[2], x2 = 0.647	0.00526	–	–
[2], x2 = 0.7443	0.0101	–	–
[2], x2 = 0.8495	0.0112	–	–
[2], x2 = 0.9437	0.00638	–	–

C1CCOCC1 [tetrahydropyran] + c1ccccc1
Conditions	excess molar enthalpy [kcal/mol]	excess molar volume [m3/mol]	speed of sound [m/s]
[1], x1 = 0.0555	–	–	1256
[1], x1 = 0.0684	–	-4.9e-08	–
[1], x1 = 0.1029	–	-6.9e-08	–
[1], x1 = 0.1165	–	–	1253
[1], x1 = 0.1472	–	–	1251
[1], x1 = 0.1673	–	-1.01e-07	–
[1], x1 = 0.1835	–	-1.08e-07	–
[1], x1 = 0.2223	–	–	1248
[1], x1 = 0.243	–	-1.29e-07	–
[1], x1 = 0.2728	–	–	1246
[1], x1 = 0.3143	–	-1.45e-07	–
[1], x1 = 0.3751	–	–	1241
[1], x1 = 0.4085	–	-1.56e-07	–
[1], x1 = 0.4395	–	–	1239
[1], x1 = 0.4821	–	–	1237
[1], x1 = 0.5291	–	-1.52e-07	–
[1], x1 = 0.5313	–	–	1238
[1], x1 = 0.599	–	-1.42e-07	–
[1], x1 = 0.6223	–	–	1233
[1], x1 = 0.6543	–	-1.3e-07	–
[1], x1 = 0.681	–	–	1231
[1], x1 = 0.7321	–	–	1230
[1], x1 = 0.7452	–	-1.05e-07	–
[1], x1 = 0.7823	–	-9.3e-08	–
[1], x1 = 0.8253	–	–	1228
[1], x1 = 0.8754	–	-5.7e-08	–
[1], x1 = 0.9123	–	–	1226
[1], x1 = 0.9539	–	-2.3e-08	–
[2], x1 = 0.0484	-0.00779	–	–
[2], x1 = 0.0757	-0.0123	–	–
[2], x1 = 0.0978	-0.016	–	–
[2], x1 = 0.1432	-0.0235	–	–
[2], x1 = 0.2425	-0.0384	–	–
[2], x1 = 0.311	-0.0467	–	–
[2], x1 = 0.385	-0.053	–	–
[2], x1 = 0.4982	-0.0565	–	–
[2], x1 = 0.6013	-0.0531	–	–
[2], x1 = 0.6875	-0.0456	–	–
[2], x1 = 0.7073	-0.0434	–	–
[2], x1 = 0.7832	-0.0334	–	–
[2], x1 = 0.8501	-0.0233	–	–
[2], x1 = 0.923	-0.0117	–	–

C1CCOCC1 [tetrahydropyran] + Cc1ccccc1
Conditions	excess molar enthalpy [kcal/mol]	excess molar volume [m3/mol]	speed of sound [m/s]
[1], x1 = 0.0554	–	-3.1e-08	–
[1], x1 = 0.0673	–	-3.7e-08	–
[1], x1 = 0.085	–	-4.6e-08	–
[1], x1 = 0.0925	–	–	1259
[1], x1 = 0.1343	–	–	1258
[1], x1 = 0.1534	–	-7.9e-08	–
[1], x1 = 0.1789	–	–	1257
[1], x1 = 0.1861	–	-9.2e-08	–
[1], x1 = 0.2311	–	-1.1e-07	–
[1], x1 = 0.2587	–	–	1256
[1], x1 = 0.2942	–	-1.29e-07	–
[1], x1 = 0.3742	–	–	1254
[1], x1 = 0.4109	–	-1.53e-07	–
[1], x1 = 0.4263	–	–	1253
[1], x1 = 0.4815	–	–	1251
[1], x1 = 0.5187	–	–	1250
[1], x1 = 0.5273	–	-1.59e-07	–
[1], x1 = 0.5795	–	–	1248
[1], x1 = 0.6433	–	-1.46e-07	–
[1], x1 = 0.6765	–	–	1243
[1], x1 = 0.7122	–	–	1242
[1], x1 = 0.7215	–	-1.27e-07	–
[1], x1 = 0.7646	–	–	1239
[1], x1 = 0.8202	–	-9.3e-08	–
[1], x1 = 0.8487	–	–	1234
[1], x1 = 0.9252	–	–	1229
[1], x1 = 0.9297	–	-4e-08	–
[1], x1 = 0.9735	–	-1.6e-08	–
[2], x1 = 0.0445	-0.00681	–	–
[2], x1 = 0.0662	-0.0102	–	–
[2], x1 = 0.0837	-0.0129	–	–
[2], x1 = 0.1138	-0.0176	–	–
[2], x1 = 0.2154	-0.0324	–	–
[2], x1 = 0.2806	-0.0403	–	–
[2], x1 = 0.3031	-0.0427	–	–
[2], x1 = 0.397	-0.0502	–	–
[2], x1 = 0.5319	-0.0532	–	–
[2], x1 = 0.6305	-0.0492	–	–
[2], x1 = 0.7413	-0.0389	–	–
[2], x1 = 0.8325	-0.0268	–	–
[2], x1 = 0.9352	-0.0106	–	–
[2], x1 = 0.9727	-0.00447	–	–
